# Laboratory results published in PMC5790467, “Enhanced anti-tumor efficacy and mechanisms associated with docetaxel-piperine combination- in vitro and in vivo investigation using a taxane-resistant prostate cancer model” (Oncotarget, 2017).
# Read-outs that look alike come from different tables or passages of the source.
# How the values were obtained:
# PC3-TxR tumor xenografts = experiment: Tumor growth in mice with PC3-TxR (taxane-resistant) tumor xenografts; format: in vivo, ICR-NOD/SCID mice; conditions: TxR tumor xenografts; two weeks after drug administration; DTX 20 mg/kg once a week i.v., PIP 50 mg/kg daily p.o.
# Protocol: The following experimental protocol was adopted after approval by the Animal Research Ethics Committee at the Chinese University of Hong Kong. PC3 and PC3-TxR cells were cultured in RPMI 1640 medium containing 10% FBS and 1% penicillin-streptomycin in a humidified atmosphere of 5% CO2 at 37°C. PC3 and PC3-TxR cell pellets were re-suspended in serum free RPMI1640 and diluted by Matrigel™ Basement Membrane Matrix (BD Biosciences, Bedford, MA, USA) to the density of 3.33 × 10^6cells/ml. Male ICR-NOD/SCID mice (Laboratory Animal Services Center at the Chinese University of Hong Kong) weighing 25 to 30 g (age 6–8 weeks) was anesthetized with an intraperitoneal injection of a cocktail containing 87 mg/kg ketamine and 8.7 mg/kg xylazine (diluted with saline and the injection volume was about 0.1 ml). The cell suspension was injected subcutaneously to both the left and right flank region. The tumors were allowed to grow for about 2 weeks. Tumor volumes were measured twice per week (tumor volume = [(W^2 × L)/2], where W is the tumor measurement at the widest point, and L is the tumor dimension at the longest point). When the tumors reach about 100 mm^3, treatment was started and the date was designated as Day 0.
# [1] = Body weight and tolerability in mice with TxR tumor xenografts
# Protocol: For oral administration of PIP, in 1 ml of PIP dosing solution, 100 µl of its stock solution was solubilized with 500 µl of PEG 400 and 400 µl of physiological saline and the mixture was administrated orally to mice at the dose of 0.1 ml/10 g body weight. […] On Day 0, mice with PC3 cell xenografts were divided into two groups and mice with PC3-TxR cell xenografts were divided into four groups. Mice in each group were treated according to Supplementary Table 3 and the drug dosing lasted for 2 weeks with body weight and tumor sized measured twice per week. […] At the end of experiment, the mice were anesthetized followed by haemospasia to death by cardiac puncture.
# [2] = tested on: CYPs (hepatic metabolism of DTX); experiment: In vitro inhibition of hepatic metabolism of DTX in mouse liver microsomes; format: in vitro ADME, ICR mice; conditions: ICR, pH 7.4, probe DTX (docetaxel) 2 μM
# Protocol: Livers of ICR-NOD/SCID mice administrated with vehicle control or PIP were collected for the ex vivo metabolism study. In vitro metabolic reactions were performed in blank ICR mice liver. Hepatic microsomes were prepared according to the method of Hill. The system of enzymatic incubation was conducted based on the condition reported by Mooiman et al. with minor modification. […] Drug mixture was pre-incubated with mice liver microsome at 0.5 mg/ml in 50 mM phosphate buffer (pH7.4) containing 2.6 mM of NADP^+, 7.1 mM of glucose-6-phosphate and 6.5 mM of magnesium chloride for 15 min. The reaction was initiated by the addition of glucose-6-phosphate dehydrogenase at 0.8 U/ml. After incubation for 60 min, the reaction was terminated by the addition of 200 µl of ice-cold acetonitrile/methanol (50:50, v/v) containing glibenclamide at 100 ng/ml. The mixture was centrifuged at 13000 rpm for 10 min and the supernatant was injected into LC/MS/MS for analysis.
# PC3-TxR cells = experiment: Cell viability (cytotoxicity) of PC3-TxR cells; format: cell-based; conditions: Homo sapiens, triplicate samples, read-out: IC50, cytotoxicity of PIP on PC3-TxR
# Source text: www.impactjournals.com/oncotarget/ Oncotarget, Supplementary Materials 2017
# investigation using a taxane-resistant prostate cancer model
# Supplementary Figure 1: Cell viability (measured from triplicate samples) of PC3-TxR cells. (A) The cytotoxicity of PIP
# (1 picture or pasted object on this page, not shown here)
# Caco-2 monolayer model = tested on: Caco-2 monolayer model; parameters: method as in PMID 12130727; conditions: cited from earlier work
# MCF-7/DOX = tested on: MCF-7/DOX; parameters: method as in PMID 21802927; conditions: PIP at 50 μM; cited from earlier work
# A-549/DDP = tested on: A-549/DDP; parameters: method as in PMID 21802927; conditions: PIP at 50 μM; cited from earlier work
# [3] = i.g.; female Fischer rats; cited from earlier work
structure (smiles),measurement,setting,value
"O=C(/C=C/C=C/c1ccc2c(c1)OCO2)N1CCCCC1 [PIP, 1-piperoyl piperidine]",percentage of tumor size increase,PC3-TxR tumor xenografts,196%
same,response of mice to PIP at higher dose,"[1]; PIP at 100 mg/kg, mice implanted with taxane-resistant prostate cancer",severe excitation responses
same,percentage of bodyweights,"[1]; TxR tumor xenograft mice, two weeks of treatment, control 96%",98%
same,IC50 at 60 min,[2],37.3 µM
same,IC50,PC3-TxR cells,47.3 µg/mL
same,IC50,Caco-2 monolayer model; read-out: IC50 of inhibition of the transport of cyclosporine A,74.1 µM
same,IC50,Caco-2 monolayer model; read-out: IC50 of inhibition of the transport of digoxin,15.5 µM
same,enhancement of the sensitivity to doxorubicin,MCF-7/DOX,32 folds
same,enhancement of the sensitivity to doxorubicin,A-549/DDP,14 folds
same,LD50,[3],514 mg/kg
